Drawing on PubChem BioAssay (NCI), this text covers TGI and GI50 for 14 molecules.

Structures are written as SMILES.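 Growth conditions: 96-well plates. Treatment: test compound, 48 hours, 5 concentrations. Analysis: linear interpolation between bracketing concentrations; unreached endpoints set to highest concentration. Here, GI50 denotes the concentration required for 50% inhibition of growth. The concentration for full growth arrest is given as TGI.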

Test systems include HCT-116 colon; TK-10 renal; SNB-75 CNS; KM12 colon; CCRF-CEM leukemia; HOP-62 NSCLC; NCI-H522 lung; ACHN renal; HCC-2998 colon; HT29 colon.
Assay in all cases: inhibition of tumour cell growth, NCI panel, 48 h

As for `O=C(Nc1cc([N+](=O)[O-])cc([N+](=O)[O-])c1)OC1C2CCC1C1OC1C2` (centres undefined), the TGI in the assay on HCT-116 colon, in the assay on TK-10 renal, in the assay with SNB-75 CNS, in the assay with KM12 colon, in the assay with CCRF-CEM leukemia and in the assay with HOP-62 NSCLC was over 50 µM throughout. In addition, the TGI with NCI-H522 lung, in the assay with ACHN renal and in the assay with HCC-2998 colon was over 50 µM each time.

Regarding `CCCCCCCCCCC(CN(CC)CC)C(O)c1ccccc1` (centres undefined), the GI50 was 1.72 µM in the assay on HCT-116 colon; 1.65 µM with TK-10 renal; 1.33 µM with SNB-75 CNS; 1.83 µM in the assay with KM12 colon; 1.82 µM in the assay with CCRF-CEM leukemia; 1.83 µM in the assay on NCI-H522 lung. Also, the GI50 is 1.61 µM in the assay on ACHN renal, 1.81 µM in the assay on HCC-2998 colon and 1.76 µM in the assay on HT29 colon. Also, the TGI was found to be 3.37 µM in the assay on HCT-116 colon; 3.22 µM in the assay on TK-10 renal; 2.7 µM with SNB-75 CNS; 3.39 µM with KM12 colon; 4.89 µM with CCRF-CEM leukemia; 3.8 µM with NCI-H522 lung. In addition, the TGI was 3.07 µM with ACHN renal, 3.39 µM in the assay with HCC-2998 colon and 3.81 µM in the assay on HT29 colon.

As for `NC(N)=N/N=C(/c1ccccc1)c1ccc(O)cc1O`, the TGI is over 100 µM in the assay on HCT-116 colon; over 100 µM with TK-10 renal; over 100 µM in the assay with SNB-75 CNS; over 100 µM in the assay with KM12 colon; over 100 µM in the assay with HOP-62 NSCLC; 34.5 µM in the assay on NCI-H522 lung. The TGI in the assay on ACHN renal is over 100 µM; in the assay on HCC-2998 colon, 32 µM; in the assay on HT29 colon, 39.2 µM.

On to `NCCCn1c2c(c3ccc([N+](=O)[O-])cc3c1=O)C(=O)c1cc(Cl)ccc1-2`, for which the GI50 is under 0.01 µM with HCT-116 colon; 0.379 µM in the assay on TK-10 renal; under 0.01 µM in the assay with SNB-75 CNS; under 0.0283 µM with KM12 colon; under 0.01 µM in the assay with CCRF-CEM leukemia; under 0.01 µM in the assay on HOP-62 NSCLC. For the same molecule, the GI50 in the assay on ACHN renal is under 0.01 µM; with HCC-2998 colon it was under 0.0138 µM; in the assay on HT29 colon it was under 0.01 µM. Also, the TGI turned out to be 0.0182 µM in the assay with HCT-116 colon; 0.811 µM with TK-10 renal; 1.2 µM in the assay with SNB-75 CNS; 0.174 µM in the assay with KM12 colon; 0.0104 µM in the assay with CCRF-CEM leukemia; 0.123 µM in the assay on HOP-62 NSCLC. The TGI with ACHN renal was 0.124 µM; with HCC-2998 colon, 0.119 µM; in the assay on HT29 colon, 0.225 µM.

As for `O=C1C(Cl)=C(Nc2ccc3c(c2NC2=C(Cl)C(=O)c4ccccc4C2=O)C(=O)c2ccccc2C3=O)C(=O)c2ccccc21`, the GI50 is 7.26 µM in the assay with TK-10 renal; 4.35 µM in the assay with SNB-75 CNS; 2.98 µM in the assay on KM12 colon; 2.48 µM in the assay on CCRF-CEM leukemia; 2.25 µM with HOP-62 NSCLC; 2.48 µM in the assay with NCI-H522 lung. Moreover, the GI50 with ACHN renal was 2.15 µM; in the assay with HCC-2998 colon it was 3.26 µM; with HT29 colon it was 3.12 µM. The TGI was determined as 22.2 µM in the assay with TK-10 renal; 13.9 µM in the assay on SNB-75 CNS; 15 µM with KM12 colon; 24.7 µM in the assay on CCRF-CEM leukemia; 5.68 µM with HOP-62 NSCLC; 8.7 µM with NCI-H522 lung. The figures for the TGI in the assay on ACHN renal, in the assay on HCC-2998 colon and with HT29 colon were 9.05 µM, 10.7 µM and 8.54 µM, respectively.

As for `CN(/C(=N\O)c1ccccc1)c1ccccc1`, the TGI is over 100 µM in the assay with HCT-116 colon; 40.8 µM in the assay with SNB-75 CNS; over 100 µM with KM12 colon; 58.8 µM in the assay with HOP-62 NSCLC; 40.3 µM in the assay on NCI-H522 lung; 73.5 µM with HCC-2998 colon. Besides, the TGI in the assay on HT29 colon amounted to 87.5 µM.

Regarding `N=C(N)Cn1cnc2ccccc21`, the TGI in the assay on TK-10 renal, with SNB-75 CNS, in the assay with KM12 colon, with CCRF-CEM leukemia, in the assay with HOP-62 NSCLC and in the assay with NCI-H522 lung was over 100 µM each time. For the same molecule, the TGI with ACHN renal and in the assay with HCC-2998 colon was over 100 µM in each case.

In the case of `Cc1cc(Cl)ccc1Nc1nc(C(F)(F)F)ccc1C(=O)N/N=C/c1ccc(N(C)C)cc1`, the GI50 with HCT-116 colon is 0.743 µM; with TK-10 renal, 1.03 µM; in the assay with SNB-75 CNS, 1.83 µM; in the assay on KM12 colon it was 3.4 µM; in the assay on HOP-62 NSCLC, 2.38 µM; in the assay on NCI-H522 lung it was 3.07 µM. Further, the GI50 is 2.57 µM with ACHN renal, 1.43 µM with HCC-2998 colon and 3.8 µM in the assay with HT29 colon. Besides, the TGI in the assay with HCT-116 colon, in the assay with TK-10 renal, in the assay on SNB-75 CNS, in the assay on KM12 colon, with HOP-62 NSCLC and in the assay with NCI-H522 lung was over 100 µM throughout. For the same molecule, the TGI in the assay with ACHN renal, with HCC-2998 colon and in the assay on HT29 colon was over 100 µM throughout.

With `CCN1CCC(O)(c2ccc(Cl)c(Cl)c2)C(C(=O)c2ccc(Cl)c(Cl)c2)C1` (centres undefined), the TGI in the assay on HCT-116 colon was 32.4 µM; with TK-10 renal, 30.5 µM; in the assay with SNB-75 CNS, 28.5 µM; with CCRF-CEM leukemia, 36.6 µM; in the assay with HOP-62 NSCLC, 33.9 µM; with NCI-H522 lung, 13 µM. The results for the TGI in the assay on ACHN renal, with HCC-2998 colon and with HT29 colon were 28.3 µM, 35.1 µM and 32.2 µM, respectively.

Consider `CCC[CH2][Sn]1([CH2]CCC)[O]CC([CH2][Sn]([c]2ccccc2)([c]2ccccc2)[c]2ccccc2)[O]1` (centres undefined), for which the GI50 in the assay with TK-10 renal is 13.8 µM; in the assay on SNB-75 CNS, 6.49 µM; with KM12 colon, 12.2 µM; in the assay with CCRF-CEM leukemia it was 2.26 µM; with NCI-H522 lung it was 1.4 µM; with ACHN renal, 17 µM. In the assay with HCC-2998 colon, the GI50 was 10.2 µM. The TGI in the assay on TK-10 renal was found to be 27 µM; in the assay with SNB-75 CNS it was 20.2 µM; in the assay with KM12 colon, 25.3 µM; in the assay with CCRF-CEM leukemia, 20.8 µM; with NCI-H522 lung it was 3.37 µM; in the assay on ACHN renal, 32.5 µM. Also, the TGI with HCC-2998 colon is 22.4 µM.

Take `Cc1ccc2oc(=O)cc(C3c4ccc([nH]4)C(c4cc(=O)oc5ccc(C)cc45)c4ccc([nH]4)C(c4cc(=O)oc5ccc(C)cc45)c4ccc([nH]4)C(c4cc(=O)oc5ccc(C)cc45)c4ccc3[nH]4)c2c1` (centres undefined): the GI50 is 0.0295 µM in the assay with HCT-116 colon; 0.0519 µM in the assay on TK-10 renal; 0.0256 µM in the assay on SNB-75 CNS; 0.0359 µM in the assay with CCRF-CEM leukemia; 0.0463 µM in the assay on HOP-62 NSCLC; 0.212 µM with NCI-H522 lung. The GI50 in the assay with ACHN renal is 0.0621 µM; in the assay with HCC-2998 colon it was 0.188 µM; in the assay on HT29 colon, 0.0347 µM. Further, the TGI with HCT-116 colon was 0.28 µM; in the assay with TK-10 renal, 0.926 µM; with SNB-75 CNS, 1.61 µM; in the assay on CCRF-CEM leukemia it was over 100 µM; in the assay with HOP-62 NSCLC it was 1.27 µM; with NCI-H522 lung it was 0.796 µM. For the same molecule, the TGI with ACHN renal amounted to 2.67 µM; with HCC-2998 colon it was 0.846 µM; in the assay on HT29 colon, 0.108 µM.

With `O=C(O)C1=C(Cl)c2ccccc2S1(=O)=O`, the TGI in the assay on TK-10 renal is over 100 µM; in the assay on SNB-75 CNS, over 100 µM; in the assay with KM12 colon, over 100 µM; in the assay on CCRF-CEM leukemia it was over 100 µM; in the assay on HOP-62 NSCLC, over 100 µM; in the assay on NCI-H522 lung it was 40.7 µM. Further, the TGI with HCC-2998 colon was over 100 µM.

Consider `CC(=O)[CH-]C(=O)c1ccccc1.CC(=O)[CH-]C(=O)c1ccccc1.CC[O-].O=C1C=C([O-])C(=O)c2ccccc21.[Ti+4]`, for which the GI50 was 62.5 µM with HCT-116 colon; over 100 µM in the assay with SNB-75 CNS; 32.2 µM in the assay with KM12 colon; 21 µM in the assay on CCRF-CEM leukemia; 58.2 µM with HOP-62 NSCLC; 10.6 µM in the assay on NCI-H522 lung. The results for the GI50 in the assay on ACHN renal, in the assay with HCC-2998 colon and in the assay with HT29 colon were 66.5 µM, 23.1 µM and 41 µM, respectively. Moreover, the TGI was over 100 µM in the assay on HCT-116 colon; over 100 µM with SNB-75 CNS; over 100 µM in the assay with KM12 colon; over 100 µM with CCRF-CEM leukemia; over 100 µM in the assay on HOP-62 NSCLC; 69.3 µM with NCI-H522 lung. Also, the TGI in the assay on ACHN renal, with HCC-2998 colon and with HT29 colon was over 100 µM throughout.

Turning to `CC(C)(C)n1cc(-c2ccnc(NCCCNS(=O)(=O)c3ccc(Cl)cc3)c2)c(-c2cccc(O)c2)n1`, the GI50 with HCT-116 colon was 1.67 µM; with TK-10 renal, 2.38 µM; with SNB-75 CNS it was 1.37 µM; in the assay with KM12 colon, 2.08 µM; in the assay with CCRF-CEM leukemia it was 2.13 µM; with HOP-62 NSCLC, 1.74 µM. In addition, the GI50 is 1.92 µM in the assay with NCI-H522 lung, 1.97 µM in the assay with ACHN renal and 1.76 µM with HCC-2998 colon. Further, the TGI with HCT-116 colon was determined as 3.22 µM; in the assay with TK-10 renal, 5.93 µM; in the assay on SNB-75 CNS it was 3.03 µM; with KM12 colon, 4.44 µM; in the assay with CCRF-CEM leukemia, 7.85 µM; with HOP-62 NSCLC it was 3.52 µM. Moreover, the TGI in the assay with NCI-H522 lung amounted to 3.91 µM; in the assay with ACHN renal, 4.48 µM; with HCC-2998 colon, 3.24 µM.
